Measured values reported in patent US20260224512A1, “USE OF 5-METHOXY-2-AMINOINDAN ("MEAI") IN METHODS FOR TREATING METABOLIC SYNDROME” (Clearmind Labs Corp., priority 2022, published 2026).

Columns and labels:
[1] = system: DIO mouse model; assay: Chronic MEAI in DIO model: food consumption and energy metabolism; assay type: in vivo, mice; conditions: 40 mg/kg/day
Procedure: (§1) Effect of MEAI on Obesity. Male C57BL/6 mice were used to establish DIO by feeding them a high-fat diet (HFD; 60% Kcal fat, 20% Kcal protein, and 20% Kcal carbohydrates; Research Diet, D12492) for 18 weeks. After this period, mice were treated with either vehicle (sterile water, N=8) or MEAI (N=11) daily for 28 days by gavage at a dose of 40 mg/kg/day. Age-matched control mice (N=10) on a standard diet (STD; 14% Kcal fat, 24% Kcal protein, 62% Kcal carbohydrates; NIH-31 rodent diet) and received vehicle daily. The body weight of all mice was monitored daily, and total body fat and lean mass were determined by EchoMRI-100H™ (Echo Medical Systems LLC, Houston, TX, USA). On Day 29, at the end of the experimental period, mice were euthanized by a cervical dislocation under anesthesia. The kidneys, brain, liver, and fat pads were removed and weighed, and samples were either snap-frozen or fixed in buffered 4% formalin. Trunk blood was collected to determine biochemical parameters.
(§2) Multi-parameter metabolic assessment. The metabolic profiles and food and water intakes of the mice were assessed by using the Promethion High-Definition Behavioral Phenotyping System (Sable Instruments, Inc., Las Vegas, NV, USA). Data acquisition and instrument control were performed using MetaScreen software version 2.2.18.0, and the obtained raw data were processed using ExpeData version 1.8.4 using an analysis script detailing all aspects of data transformation. Mice with free access to food and water were subjected to a standard 12 h light/12 h dark cycle, which consisted of a 48 h acclimation period followed by 24 h of sampling. Respiratory gases were measured by using the GA-3 gas analyzer (Sable Systems, Inc., Las Vegas, NV, USA) using a pull-mode, negative pressure system. Air flow was measured and controlled by FR-8 (Sable Systems, Inc., Las Vegas, NV, USA), with a set flow rate of 2000 mL/min. Water vapor was continuously measured and its dilution effect on O2 and CO2 was mathematically compensated. Respiratory exchange rate (RER) was calculated as the ratio of CO2 produced (VCO2) to O2 consumed (VO2) using Equation (1): […]
(§3) Total energy expenditure (TEE) was calculated using VO2 and RER, according to Equation (2): […]
(§4) Fat oxidation (FO) and carbohydrate oxidation (CHO) were calculated using VO2 and VCO2 based on Equations (3) and (4), respectively: […]

[2] = system: C57BL/6 mice; assay: Acute multi-parameter metabolic assessment (food and water intake, respirometry); assay type: in vivo
Procedure: (§5) Male 6-week-old C57BL/6 mice (Envigo, Israel) were maintained under a 12-h light/dark cycle and fed ad libitum. A total of 32 animals were divided into four experimental groups (N=8 mice per group) receiving single doses of 40, 60, or 100 mg/kg of MEAI or vehicle (sterile water), which was administered via oral gavage two hours prior to the dark phase. The animals were monitored for 48 hours post-dose for drug tolerability, food and water intakes as well as activity and metabolic parameters. At the end of the experiment, the animals were euthanized, and tissues (brain, liver, fat, and kidney) and blood were collected and stored frozen for future analyses. To generate diet-induced obesity, C57BI6/J mice were fed either a high-fat diet (HFD) (60% of calories from fat, 20% from protein, and 20% from carbohydrates; Research Diet, D12492) or a standard laboratory diet (STD, 14% fat, 24% protein, 62% carbohydrates; NIH-31 rodent diet) for 18 weeks.
as §2, §3, §4

[3] = system: DIO mouse model; assay: Chronic MEAI in HFD-induced obesity (DIO) model: body weight and body composition; assay type: in vivo, mice; conditions: 28 days
Procedure: as §1

[4] = system: C57BL/6 mice; assay: Sucrose preference test; assay type: in vivo; conditions: single dose 40 mg/kg
Procedure: Sucrose Preference Test. Thirteen-week-old male C57BL/6 mice maintained on a STD and housed individually were habituated to two water bottles in their home cage for 48 h prior to the test. Baseline intake was measured by weighing the bottles. On the test day (Day 1), 2 h before the onset of the dark phase, fresh water and a 1.5% sucrose solution were added to the bottles, and mice were subsequently treated orally with MEAI (40 mg/kg, N=8) or sterile water (N=8). The mice were allowed to drink from either bottle freely for 24 h, after which the bottles were weighed to measure consumption. The study was repeated for an additional day (Day 2), with the bottles switched in position (in the cage) to account for side preference. The sucrose and water intake over the two days were averaged, and the sucrose preference index was calculated as the average consumed sucrose solution divided by the average volume of total consumed liquid (average water plus average sucrose solution).

[5] = system: DIO mouse model; assay: Hepatic triglyceride and cholesterol content, Oil Red O staining in DIO mice; assay type: in vivo; conditions: 40 mg/kg/day
Procedure: as §1
Hepatic Triglyceride and Cholesterol Content. Liver tissue was extracted as described in (Tam et al., 2012), and its cholesterol and triglycerides contents were determined using a Cobas C-111 chemistry analyzer (Roche, Switzerland).
Histopathology. First, 5 μm paraffin-embedded liver sections from 5 animals per group were stained with hematoxylin-eosin staining. Liver images were captured using a Zeiss Axio Scope A1 light microscope (Carl Zeiss AG, Jena, Germany equipped with a Zeiss AxioCam ICc5 color camera. Ten random 40× fields of view were taken from each animal to obtained representative images.
Oil Red O staining. Liver cryosections (8 μm) were stained with Oil Red O (Cat #ab150678; Abcam) following the manufacturer's protocol. Images were acquired as described above. For quantitative analysis of Oil Red O staining, the area of lipid droplets in the liver cryosections was measured using the ImageJ software.

[6] = system: DIO mouse model; assay: Blood biochemistry in DIO mice; assay type: in vivo; conditions: 40 mg/kg/day
Procedure: as §1
(§6) Blood and urine biochemistry. Serum levels of alanine aminotransferase (ALT), aspartate aminotransferase (AST), alkaline phosphatase (ALP), cholesterol, triglycerides, high-density lipoprotein (HDL), and low-density lipoprotein (LDL) were determined by using the Cobas C-111 chemistry analyzer (Roche, Switzerland). Blood urea nitrogen (BUN) was calculated based on serum urea levels as follows: BUN (mg/dL)=Urea (mg/dL)/2.1428. Fasting blood glucose was measured using the Contour® glucometer (Bayer, Pittsburgh, PA). Serum insulin was determined using an Ultra-Sensitive Mouse Insulin ELISA kit (Crystal Chem, Inc., Elk Grove Village, IL, USA).

[7] = system: DIO mouse model; assay: Chronic MEAI in DIO model: wheel running and locomotive activity; assay type: in vivo, mice; conditions: 40 mg/kg/day
Procedure: as §1
(§7) Wheel running and locomotive activity. The assessment of wheel running and locomotor activity was performed using the Promethion High-Definition Behavioral Phenotyping System (Sable Instruments, Inc., Las Vegas, NV, USA). Wheel revolutions were measured with a monitor that recorded voluntary wheel running activity, and locomotor activity was quantified using disruptions of infrared XYZ beam arrays, with a beam spacing of 0.25 cm.

[8] = system: C57BL/6 mice; assay: Acute single-dose tolerability of MEAI; assay type: in vivo
Procedure: as §5

[9] = system: DIO mouse model; assay: Glucose tolerance test (ipGTT), insulin tolerance test (ipITT) and glycemic parameters in DIO mice; assay type: in vivo; conditions: 40 mg/kg/day
Procedure: as §1
Glucose Tolerance Test (ipGTT) and the Insulin Tolerance Test (ipITT). On day 25 of the experiment, mice were subjected to an overnight fasting and then injected with glucose (1.5 g/kg i.p.) on the following day (day 26). Blood glucose levels were determined at 0, 15, 30, 45, 60, 90, and 120 min after injection using the Contour® glucometer (Bayer, Pittsburgh, PA, USA). The mice were then fasted for 6 h on the next day (day 27) before being administered insulin (0.75 U/kg, i.p.; Actrapid vials, Novo Nordisk A/S, Bagsværd, Denmark). Blood glucose levels were determined at the same intervals as described above. To assess insulin resistance, the homeostasis model assessment insulin resistance (HOMA-IR) was calculated as fasting serum insulin ([μU/mL]×fasting plasma glucose [mmol/L]/22.5). The relative insulin sensitivity index (ISI) was calculated as 1/(glucose×insulin)×1000, with glucose expressed as mg/dl and insulin as mU/L.
as §6

[10] = system: DIO mouse model; assay: Kidney and liver weight in DIO mice; assay type: in vivo; conditions: 40 mg/kg/day, HFD-fed mice
Procedure: as §1

[11] = system: C57BL/6 mice; assay: Acute wheel running and locomotive activity; assay type: in vivo
Procedure: as §5, §7

[12] = compared to HFD vehicle-treated group
[13] = single dose 40, 60, 100 mg/kg, 24-hour period
[14] = single dose, 60 and 100 mg doses
[15] = compared to HFD vehicle control
[16] = in comparison with HFD-vehicle group
[17] = single dose, 40 mg/kg and above

COc1ccc2c(c1)CC(N)C2 (stereo not shown) [MEAI, 5-methoxy-2-aminoindan]
carbohydrate oxidation (CHO) ([1]; HFD-fed mice): no effect of the drug itself
respiratory exchange rate (RER) ([1]; HFD-fed mice, in comparison to STD vehicle group): slightly decreased
food intake per meal ([1]; HFD-fed mice, both MEAI and vehicle HFD groups): reduction in food intake per meal
carbon dioxide production [1, 12]: slightly increased
oxygen consumption [1, 12]: slightly increased
energy expenditure ([1]; compared to both HFD and STD vehicle groups, light and dark phases): significant increase
overall rate of fat oxidation (FO) ([1]; compared to both HFD- and STD-vehicle groups): increase
water intake ([1]; obese mice): did not have any effect
carbohydrate oxidation (CHO) rate [2, 13]: corresponding elevations
fat oxidation (FO) rate [2, 13]: corresponding elevations
total energy expenditure (TEE) [2, 13]: significant dose-dependent increases
rate of carbon dioxide emission (VCO2) [2, 14]: higher rates
rate of oxygen consumption (VO2) [2, 14]: higher rates
respiratory exchange rate (RER) ([2]; single dose, light phase, 60 and 100 mg doses): increase
water consumption ([2]; single oral dose 40, 60 or 100 mg/kg): no notable changes
feeding patterns (food intake) ([2]; single oral dose 40, 60 or 100 mg/kg, dark and light phases, vs vehicle): did not reach statistical significance
body weight of HFD-fed mice ([3]; 40 mg/kg/day by gavage): significantly reduced
decrease in total body weight compared to the obese vehicle-treated group ([3]; 40 mg/kg/day by gavage, HFD-fed mice): ~15%
adiposity associated with obesity ([3]; 40 mg/kg/day, HFD-fed mice): reduced
lean body mass, lean body mass ratio, net lean mass ([3]; 40 mg/kg/day, HFD-fed mice): preserved
overall fat mass ([3]; 40 mg/kg/day, HFD-fed mice): reducing
water intake levels [4]: without any accompanying decrease
acute preference for sucrose solution ([4]; 1.5% sucrose vs water, most evident in initial 24-hour period): significantly reduced
preference for sucrose solution ([4]; subsequent 24-hour period): slight reduction
hepatic cholesterol levels [5, 15]: trend toward a reduction
liver triglycerides [5, 15]: significant reductions
Oil Red O staining [5, 12]: decrease
lipid vacuole numbers [5, 12]: reduced
HDL-to-LDL ratio ([6]; HFD-fed mice): increased
blood urea nitrogen (BUN) levels ([6]; HFD-fed mice): slight improvements
cholesterol levels ([6]; HFD-fed mice, not statistically significant): tendency towards decreased
circulating triglyceride levels ([6]; any of the study groups): no significant alterations
HDL levels ([6]; compared to HFD vehicle group): without notable changes
LDL levels ([6]; compared to HFD vehicle group): significantly reduced
ALP levels ([6]; compared to HFD-vehicle group): significantly reduced
ALT levels ([6]; compared to HFD-vehicle group): did not significantly alter
AST levels ([6]; compared to HFD-vehicle group): did not significantly alter
pedestrian locomotive activity, speed and total distance relative to STD-vehicle group (over-stimulatory effect) ([7]; HFD-fed mice): did not surpass the levels of the STD-vehicle treated group
time spent engaging in various activities within the cage ([7]; HFD-fed mice): preference for voluntary activities
voluntary wheel running ([7]; HFD-fed mice): increased capability
voluntary actions such as pedestrian activity and grooming (ambulatory activity) ([7]; HFD-fed mice, throughout the day, more prominent in dark phase): significantly increased
pedestrian locomotion speed [7, 16]: increased
pedestrian locomotive activity [7, 16]: increased
total distance travelled [7, 16]: increased
deaths after administration ([8]; single oral dose 100 mg/kg, within a few hours, with stress of metabolic testing): two subjects in the 100 mg/kg group died
drug tolerability, changes in behavior ([8]; single oral dose 40 and 60 mg/kg, lean mice): well-tolerated, with no observable changes in behavior
HOMA-IR [9]: beneficial effects
fasting blood glucose [9]: reduced
glucose metabolism (glucose and insulin tolerance tests) [9]: significant improvement
insulin levels [9]: reduced
insulin sensitivity (insulin tolerance test) [9]: normalized
insulin sensitivity index (ISI) [9]: beneficial effects
kidney-to-body weight ratio [10]: normalized
liver weight [10]: reduced
liver weight to body weight ratio [10]: normalized
voluntary wheel running ([11]; single dose 100 mg/kg): significant suppression
total number of beam breaks (ambulatory and fine movements) ([11]; single dose 40, 60, 100 mg/kg): no significant changes
voluntary wheel running ([11]; single dose 40 and 60 mg/kg): minor elevations
directed voluntary activity (pedestrian locomotion) [11, 17]: significant and dose-dependent increase
pedestrian speed [11, 17]: significant and dose-dependent increase
total pedometer count ([11]; single dose, all doses tested (40, 60, 100 mg/kg)): increase
